Usually pIC50 stands for −log10 of the IC50, conventionally taken in molar units.

SMILES strings stand for the structures. pIC50: −log10 of the molar value. Structures can show the parent of a compound that is named as a salt.

The assay has as its target T1, Recombinant Human SSAO/VAP-1/AOC3 (Homo sapiens, UniProt Q16853).
T1 construct: purchased R&D systems 3957-AO
T1 sequence (Q16853 1-763): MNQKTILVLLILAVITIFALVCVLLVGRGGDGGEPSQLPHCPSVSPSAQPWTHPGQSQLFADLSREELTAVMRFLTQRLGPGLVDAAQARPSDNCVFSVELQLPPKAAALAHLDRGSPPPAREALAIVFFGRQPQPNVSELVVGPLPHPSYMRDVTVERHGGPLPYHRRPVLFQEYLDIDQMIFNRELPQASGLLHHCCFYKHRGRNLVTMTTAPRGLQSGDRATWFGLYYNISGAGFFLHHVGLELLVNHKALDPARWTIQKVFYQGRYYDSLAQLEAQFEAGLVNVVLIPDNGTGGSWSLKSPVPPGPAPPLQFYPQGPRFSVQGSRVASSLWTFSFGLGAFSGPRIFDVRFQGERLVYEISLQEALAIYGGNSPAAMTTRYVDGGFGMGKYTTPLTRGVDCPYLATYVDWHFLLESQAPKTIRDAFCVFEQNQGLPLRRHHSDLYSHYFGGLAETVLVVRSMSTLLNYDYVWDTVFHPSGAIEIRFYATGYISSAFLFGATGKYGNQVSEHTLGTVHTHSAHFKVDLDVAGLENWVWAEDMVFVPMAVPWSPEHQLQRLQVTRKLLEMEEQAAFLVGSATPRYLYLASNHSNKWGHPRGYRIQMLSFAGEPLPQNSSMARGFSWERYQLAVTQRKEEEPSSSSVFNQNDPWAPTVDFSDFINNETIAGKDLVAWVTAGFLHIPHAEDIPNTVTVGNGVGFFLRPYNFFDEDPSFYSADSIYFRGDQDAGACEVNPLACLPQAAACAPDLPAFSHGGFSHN
Description: Human Semicarbazide-Sensitive Amine Oxidase (SSAO) Assay. The conditions noted are these: recombinant enzyme, 30 minutes preincubation at 37° C., benzylamine substrate, Amplex Ultra Red/HRP fluorescence. Format: biochemical. In short, it runs like this: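 Recombinant human SSAO/VAP-1 (2.5 μg/ml working stock in 50 mM HEPES) preincubated with compound 30 min at 37 °C over a 6-10 point CRC. Benzylamine substrate starts the reaction. H2O2 read kinetically over 30-120 min via Amplex Ultra Red/HRP fluorescence (ex 544/em 590 nm) to derive IC50.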
As for `NC/C(=C\F)COc1ccc(C23CCC(C(=O)NCC4(O)CCC4)(CC2)CC3)cc1` [Compound 2.96, (E)-4-(4-((2-(aminomethyl)-3-fluoroallyl)oxy)phenyl)-N-((1-hydroxycyclobutyl)methyl) bicyclo[2.2.2]octane-1-carboxamide], the pIC50 was at least 8.00.
In the case of `CO[C@H]1C[C@@H](NC(=O)C23CC(c4ccc(OC/C(=C/F)CN)cc4)(C2)C3)C1` [Compound 3.05, 3-(4-(((E)-2-(aminomethyl)-3-fluoroallyl)oxy)phenyl)-N-((1r,3r)-3-methoxycyclobutyl)bicyclo [1.1.1]pentane-1-carboxamide], the pIC50 was at least 8.00.
In the case of `CC1(NC(=O)C23CCC(c4ccc(OC/C(=C/F)CN)cc4)(CC2)CC3)CCOCC1` [Compound 2.18, (E)-4-(4-((2-(amino-methyl)-3-fluoroallyl)oxy)phenyl)-N-(4-methyltetrahydro-2H-pyran-4-yl)bicyclo [2.2.2]octane-1-carboxamide], the pIC50 was at least 8.00.
In the case of `CNC(=O)CCNC(=O)C12CCC(c3ccc(OC/C(=C/F)CN)cc3)(CC1)CC2` [Compound 2.17, (E)-4-(4-((2-(amino-methyl)-3-fluoroallyl)oxy)phenyl)-N-(3-(methylamino)-3-oxopropyl)bicyclo[2.2.2] octane-1-carboxamide], the pIC50 is at least 8.00.
Take `NC/C(=C\F)COc1ccc(C23CCC(C(=O)NCC4(F)CCOCC4)(CC2)CC3)cc1` [Compound 2.33, (E)-4-(4-((2-(aminomethyl)-3-fluoroallyl)oxy)phenyl)-N-((4-fluorotetrahydro-2H-pyran-4-yl)methyl)bicyclo[2.2.2]octane-1-carboxamide]: the pIC50 is at least 8.00.
With `NC/C(=C\F)COc1ccc(C23CCC(C(=O)NCC(F)(F)F)(CC2)CC3)cc1` [Compound 2.109, (E)-4-(4-((2-(aminomethyl)-3-fluoroallyl)oxy)phenyl)-N-(2,2,2-trifluoroethyl)bicyclo [2.2.2]octane-1-carboxamide], the pIC50 is at least 8.00.
Next, `CC(C)OC1CN(C(=O)C23CCC(c4ccc(OC/C(=C/F)CN)cc4)(CC2)CC3)C1` [Compound 2.56, (E)-(4-(4-((2-(aminomethyl)-3-fluoroallyl)oxy)phenyl)bicyclo [2.2.2]octan-1-yl)(3-isopropoxyazetidin-1-yl)methanone]: at least 8.00.
As for `NC/C(=C\F)COc1ccc(C23CCC(C(=O)NC45CC(O)(C4)C5)(CC2)CC3)cc1` [Compound 2.93, (E)-4-(4-((2-(aminomethyl)-3-fluoroallyl)oxy)phenyl)-N-(3-hydroxybicyclo[1.1.1]pentan-1-yl)bicyclo[2.2.2]octane-1-carboxamide], the pIC50 is at least 8.00.
`CC1(C)CC(NC(=O)C23CCC(c4ccc(OC/C(=C/F)CN)cc4)(CC2)CC3)CC(C)(C)O1` [Compound 2.105, (E)-4-(4-((2-(aminomethyl)-3-fluoroallyl)oxy)phenyl)-N-(2,2,6,6-tetramethyltetrahydro-2H-pyran-4-yl)bicyclo[2.2.2]octane-1-carboxamide]: the pIC50 was at least 8.00.
Next, `CO[C@H]1CCCN(C(=O)C23CCC(c4ccc(OC/C(=C/F)CN)cc4)(CC2)CC3)C1` [Compound 2.110, (S,E)-(4-(4-((2-(aminomethyl)-3-fluoroallyl)oxy)phenyl)bicyclo [2.2.2]octan-1-yl)(3-methoxypiperidin-1-yl)methanone]: at least 8.00; `N#CC1(CNC(=O)C23CCC(c4ccc(OC/C(=C/F)CN)cc4)(CC2)CC3)CCOCC1` [Compound 2.62, (E)-4-(4-((2-(aminomethyl)-3-fluoroallyl)oxy)phenyl)-N-((4-cyanotetrahydro-2H-pyran-4-yl)methyl)bicyclo[2.2.2]octane-1-carboxamide]: at least 8.00; `NC/C(=C\F)COc1ccc(C23CCC(C(=O)NC4CCOCC4)(CC2)C3)cc1` [Compound 4.01, (E)-4-(4-((2-(Aminomethyl)-3-fluoroallyl)oxy)phenyl)-N-(tetrahydro-2H-pyran-4-yl)bicyclo[2.2.1]heptane-1-carboxamide Hydrochloride]: at least 8.00.
Next, `CC(C)(O)CNC(=O)C12CCC(c3ccc(OC/C(=C/F)CN)cc3)(CC1)CC2` [Compound 2.48, (E)-4-(4-((2-(aminomethyl)-3-fluoroallyl)oxy)phenyl)-N-(2-hydroxy-2-methylpropyl)bicyclo[2.2.2] octane-1-carboxamide]: at least 8.00.
Turning to `COCCCNC(=O)C12CCC(c3ccc(OC/C(=C/F)CN)cc3)(CC1)CC2` [Compound 2.83, (E)-4-(4-((2-(aminomethyl)-3-fluoroallyl)oxy)phenyl)-N-(3-methoxypropyl)bicyclo[2.2.2] octane-1-carboxamide], the pIC50 was at least 8.00.
For the molecule `CC(C)(C)NC(=O)C12CCC(c3ccc(OC/C(=C/F)CN)cc3)(CC1)CC2` [Compound 2.49, (E)-4-(4-((2-(aminomethyl)-3-fluoroallyl)oxy)phenyl)-N-(tert-butyl)bicyclo[2.2.2]octane-1-carboxamide], the pIC50 is at least 8.00.
On to `NC/C(=C\F)COc1ccc(C23CCC(C(=O)N4CCCOCC4)(CC2)CC3)cc1` [Compound 2.50, (E)-(4-(4-((2-(aminomethyl)-3-fluoroallyl)oxy)phenyl)bicyclo [2.2.2]octan-1-yl)(1,4-oxazepan-4-yl)methanone], for which the pIC50 was at least 8.00.
On to `NC/C(=C\F)COc1ccc(C23CCC(OCC(=O)NC4CCOCC4)(CC2)CC3)cc1` [Compound 8.01, (E)-2-((4-(4-((2-(aminomethyl)-3-fluoroallyl)oxy)phenyl)bicyclo [2.2.2]octan-1-yl)oxy)-N-(tetrahydro-2H-pyran-4-yl)acetamide], for which the pIC50 is at least 8.00.
Take `NC/C(=C\F)CNc1ccc(C23CCC(C(=O)NC4CCOCC4)(CC2)CC3)cc1` [Compound 9, (E)-4-(4-((2-(Aminomethyl)-3-fluoroallyl)amino)phenyl)-N-(tetrahydro-2H-pyran-4-yl)bicyclo[2.2.2]octane-1-carboxamide Hydrochloride]: the pIC50 is 7.00 to 8.00.
As for `NC/C(=C\F)COc1ccc(C23CCC(C(=O)NC4CC5CCC(C4)O5)(CC2)CC3)cc1` (centres unmarked) [Compound 2.84, (E)-4-(4-((2-(aminomethyl)-3-fluoroallyl)oxy)phenyl)-N-(8-oxabicyclo[3.2.1]octan-3-yl)bicyclo[2.2.2]octane-1-carboxamide], the pIC50 is at least 8.00.
With `CO[C@@H]1CCN(C(=O)C23CCC(c4ccc(OC/C(=C/F)CN)cc4)(CC2)CC3)C1` [Compound 2.133, (R,E)-(4-(4-((2-(aminomethyl)-3-fluoroallyl)oxy)phenyl)bicyclo[2.2.2]octan-1-yl)(3-methoxypyrrolidin-1-yl)methanone], the negative-log IC50 (pIC50) was at least 8.00.
For the molecule `COCCOC12CCC(c3ccc(OC/C(=C/F)CN)cc3)(CC1)CC2` [Compound 8.03, (E)-3-Fluoro-2-((4-(4-(2-methoxyethoxy)bicyclo[2.2.2]octan-1-yl)phenoxy)methyl)prop-2-en-1-amine Hydrochloride], the pIC50 was at least 8.00.
Consider `COCC1(NC(=O)C23CCC(c4ccc(OC/C(=C/F)CN)cc4)(CC2)CC3)CCOCC1` [Compound 2.86, (E)-4-(4-((2-(aminomethyl)-3-fluoroallyl)oxy)phenyl)-N-(4-(methoxymethyl)tetrahydro-2H-pyran-4-yl)bicyclo[2.2.2]octane-1-carboxamide], for which the pIC50 is at least 8.00.
Turning to `COC[C@H]1C[C@@H](NC(=O)C23CCC(c4ccc(OC/C(=C/F)CN)cc4)(CC2)CC3)C1` [Compound 2.124, 4-(4-(((E)-2-(aminomethyl)-3-fluoroallyl)oxy)phenyl)-N-((1s,3s)-3-(methoxymethyl)cyclobutyl) bicyclo[2.2.2]octane-1-carboxamide], the pIC50 was at least 8.00.
Consider `CC(=O)N1CCN(C(=O)C23CCC(c4ccc(OC/C(=C/F)CN)cc4)(CC2)CC3)CC1` [Compound 2.31, (E)-1-(4-(4-(4-((2-(aminomethyl)-3-fluoroallyl)oxy)phenyl)bicyclo [2.2.2]octane-1-carbonyl)piperazin-1-yl)ethanone], for which the pIC50 is at least 8.00.
Regarding `NC/C(=C\F)COc1ccc(C23CCC(C(=O)NC4CCOCC4)(CC2)CC3)cc1` [Compound 2.06, (E)-4-(4-((2-(Aminomethyl)-3-fluoroallyl)oxy)phenyl)-N-(tetrahydro-2H-pyran-4-yl)bicyclo[2.2.2]octane-1-carboxamide Hydrochloride], the negative logarithm of the IC50 (pIC50) was at least 8.00.
Take `NC/C(=C\F)COc1ccc(C23CCC(C(=O)NC45CCC(O)(CC4)CC5)(CC2)CC3)cc1` [Compound 2.58, (E)-4-(4-((2-(aminomethyl)-3-fluoroallyl)oxy)phenyl)-N-(4-hydroxybicyclo[2.2.2]octan-1-yl)bicyclo[2.2.2]octane-1-carboxamide]: the pIC50 is at least 8.00.

Source of the values: US20200181104A1, “SSAO INHIBITORS AND USES THEREOF” (METACRINE, INC., priority 2018, published 2020).
